Measured values published in publication PMC5429603, “Discovery and characterization of verinurad, a potent and specific inhibitor of URAT1 for the treatment of hyperuricemia and gout” (Scientific Reports, 2017).
Residue numbers refer to the chain shown, from its start.

Experiments:
human OAT1 = target: T1, human OAT1 (Homo sapiens, UniProt Q4U2R8); assay: OAT1 activity assay (carboxyfluorescein transport); assay type: cell-based
T1 construct: host or cells: HEK-293T
Protocol: DNA (10 μg) was mixed with 30 μl of […] Gold (Boca Scientific) in 2 ml OptiMem (Life Technologies). […] The cells were assayed the following day. OAT1-expressing cells were assayed in a buffer containing 20 mM HEPES (from a 1 M solution at pH 7.3; USB Corporation), 130 mM sodium chloride, 4 mM potassium chloride, 1 mM magnesium sulfate, 1 mM calcium chloride, 1 mM sodium phosphate dibasic and 18 mM glucose. […] Cells were then solubilized in 0.1 N sodium hydroxide prior to fluorimetry measurements. Each treatment was measured in triplicate.

human URAT1 h-M22V = target: T2, human URAT1 h-M22V (Homo sapiens, UniProt Q96S37, M22V); assay: URAT1 activity assay, h-M22V; assay type: cell-based; settings: TM1 point mutant, read-out: Verinurad affinity (IC50)
T2 construct: expressed in transfected cells; host or cells: HEK-293T
Source text: (§1) Human URAT1 (GenBank BC053348.1, Homo sapiens SLC22A12), rat URAT1 (NCBI NM_001034943.1, Rattus norvegicus Slc22a12) and human OAT4 (NCBI NM_018484.2, Homo sapiens SLC22A11) genes were purchased from Origene Technologies, Inc. and subcloned into pCMV6/neo using NotI. Where indicated, controls transfections used pCMV6/neo. Mutants were produced by site-directed mutagenesis using the QuikChange Lightning Multi Site-Directed Mutagenesis Kit (Agilent Technologies). […] Mutagenic primer sequences are provided in ref. [15] and mutagenic primer sequences for previously unreported mutants shown in Supplementary Table 1. All constructs used in this study were untagged. Human OAT1 was purchased from Fisher Scientific (catalog # MHS1010–7508183 in pSPORT6, NCBI NM_153276.2, Homo sapiens SLC22A6).
(§2) HEK-293T cells were maintained in DMEM/high glucose/L-glutamine/HEPES supplemented with 1 mM sodium pyruvate (Life Technologies) and 10% FBS (PAA Laboratories) at 37 °C in 5% CO2. […]
(§3) URAT1 and OAT4 activity assays were performed in assay buffer consisting of 25 mM MES pH 5.5 (from a 1 M MES solution [Sigma] adjusted to pH 5.5 with sodium hydroxide), 125 mM sodium gluconate, 4.8 mM potassium gluconate, 1.2 mM monobasic potassium phosphate, 1.2 mM magnesium sulfate, 1.3 mM calcium gluconate and 5.6 mM glucose. […] Each treatment was measured in triplicate.

human URAT1 h-M25V = target: T3, human URAT1 h-M25V (Homo sapiens, UniProt Q96S37, M25V); assay: URAT1 activity assay, h-M25V; assay type: cell-based; settings: TM1 point mutant, read-out: Verinurad affinity (IC50)
T3 construct: expressed in transfected cells; host or cells: HEK-293T
Source text: as §1, §2, §3

human URAT1 h-S35N = target: T4, human URAT1 h-S35N (Homo sapiens, UniProt Q96S37, S35N); assay: URAT1 activity assay, h-S35N; assay type: cell-based
T4 construct: expressed in transfected cells; host or cells: HEK-293T
Source text: as §1, §2, §3

rat URAT1-Y365F = target: T5, rat URAT1-Y365F (Rattus norvegicus, UniProt Q3ZAV1, Y365F); assay: URAT1 activity assay, r-Y365F; assay type: cell-based
T5 construct: expressed in transfected cells; host or cells: HEK-293T
T5 sequence (Q3ZAV1 1-553 Y365F): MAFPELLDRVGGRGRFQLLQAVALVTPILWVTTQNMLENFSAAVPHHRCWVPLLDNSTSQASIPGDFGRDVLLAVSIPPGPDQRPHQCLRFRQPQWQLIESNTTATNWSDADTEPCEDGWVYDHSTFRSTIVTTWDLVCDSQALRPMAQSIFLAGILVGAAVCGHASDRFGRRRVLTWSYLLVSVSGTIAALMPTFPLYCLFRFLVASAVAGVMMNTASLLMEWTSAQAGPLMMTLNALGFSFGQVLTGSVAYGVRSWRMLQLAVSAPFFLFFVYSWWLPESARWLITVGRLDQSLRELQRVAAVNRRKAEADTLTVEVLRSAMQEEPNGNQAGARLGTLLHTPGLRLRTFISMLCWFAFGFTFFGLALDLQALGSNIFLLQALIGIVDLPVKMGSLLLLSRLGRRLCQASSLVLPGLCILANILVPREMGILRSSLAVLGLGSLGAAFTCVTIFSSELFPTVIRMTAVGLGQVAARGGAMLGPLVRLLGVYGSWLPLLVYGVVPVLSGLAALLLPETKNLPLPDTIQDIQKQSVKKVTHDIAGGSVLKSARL
Source text: as §1, §2, §3

rat URAT1 r-T26V = rat URAT1 r-T26V (Rattus norvegicus, UniProt Q3ZAV1, T26V); assay: cell-based
Source text: as §1
(§4) HEK-293T cells were maintained in DMEM/high glucose/L-glutamine/HEPES supplemented with 1 mM sodium pyruvate (Life Technologies) and 10% FBS (PAA Laboratories) at 37 °C in 5% CO2. To express URAT1, OAT4 or OAT1, plasmids were reverse transfected into HEK-293T cells. DNA (10 µg) was mixed with 30 µl of DreamFect Gold (Boca Scientific) in 2 ml OptiMem (Life Technologies). After 20 minutes, 18 ml of media containing 2 × 10^7 cells in suspension was added and mixed, and 200 µl per well were plated onto white clear-bottomed poly-D-lysine coated 96-well plates (BD Biosciences). The cells were assayed the following day.
(§5) URAT1 and OAT4 activity assays were performed in assay buffer consisting of 25 mM MES pH 5.5 (from a 1 M MES solution [Sigma] adjusted to pH 5.5 with sodium hydroxide), 125 mM sodium gluconate, 4.8 mM potassium gluconate, 1.2 mM monobasic potassium phosphate, 1.2 mM magnesium sulfate, 1.3 mM calcium gluconate and 5.6 mM glucose. URAT1 inhibitors were serially diluted into assay buffer and added to the cells for 5 minutes prior to addition of substrate. URAT1-expressing cells were incubated with 100 µM ^14C-uric acid for 10 minutes and OAT4-expressing cells were incubated with 20 µM carboxyfluorescein (Life Technologies, Inc.) for 5 minutes. Cells were then washed three times in 25 mM MES pH 5.5/125 mM sodium gluconate, and solubilized in Ultima Gold (Perkin Elmer) prior to liquid scintillation counting. Each treatment was measured in triplicate.

[1] = target: T6, rat URAT1 r-N35S/Y365F/M481I (Rattus norvegicus, UniProt Q3ZAV1, M481I/N35S/Y365F); assay: URAT1 activity assay, r-N35S/Y365F/M481I; assay type: cell-based
T6 construct: expressed in transfected cells; host or cells: HEK-293T
T6 sequence (Q3ZAV1 1-553 N35S/Y365F/M481I): T5 sequence (Q3ZAV1 1-553 Y365F) with N35S, M481I
Source text: as §1, §4
as §5, with “Cells were then washed three times in 25 mM MES pH 5.5/125 mM sodium gluconate, and solubilized in Ultima Gold (Perkin Elmer) prior to liquid scintillation counting.” left out

T1 sequence (Q4U2R8 1-550 isoform Q4U2R8-2): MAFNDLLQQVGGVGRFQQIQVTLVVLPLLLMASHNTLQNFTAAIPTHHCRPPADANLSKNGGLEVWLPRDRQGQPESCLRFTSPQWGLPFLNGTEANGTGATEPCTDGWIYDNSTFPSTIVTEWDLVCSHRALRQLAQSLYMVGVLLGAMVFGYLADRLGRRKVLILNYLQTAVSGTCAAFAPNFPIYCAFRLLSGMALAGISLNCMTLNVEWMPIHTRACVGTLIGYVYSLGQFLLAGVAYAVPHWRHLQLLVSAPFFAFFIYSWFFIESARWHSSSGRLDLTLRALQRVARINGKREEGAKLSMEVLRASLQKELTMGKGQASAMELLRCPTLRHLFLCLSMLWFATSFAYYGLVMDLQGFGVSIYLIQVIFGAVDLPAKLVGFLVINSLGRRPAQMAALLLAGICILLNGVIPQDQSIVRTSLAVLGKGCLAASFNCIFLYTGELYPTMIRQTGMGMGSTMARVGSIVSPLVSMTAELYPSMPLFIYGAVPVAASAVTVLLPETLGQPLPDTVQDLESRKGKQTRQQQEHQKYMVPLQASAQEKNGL
T4 sequence (Q96S37 whole entry S35N): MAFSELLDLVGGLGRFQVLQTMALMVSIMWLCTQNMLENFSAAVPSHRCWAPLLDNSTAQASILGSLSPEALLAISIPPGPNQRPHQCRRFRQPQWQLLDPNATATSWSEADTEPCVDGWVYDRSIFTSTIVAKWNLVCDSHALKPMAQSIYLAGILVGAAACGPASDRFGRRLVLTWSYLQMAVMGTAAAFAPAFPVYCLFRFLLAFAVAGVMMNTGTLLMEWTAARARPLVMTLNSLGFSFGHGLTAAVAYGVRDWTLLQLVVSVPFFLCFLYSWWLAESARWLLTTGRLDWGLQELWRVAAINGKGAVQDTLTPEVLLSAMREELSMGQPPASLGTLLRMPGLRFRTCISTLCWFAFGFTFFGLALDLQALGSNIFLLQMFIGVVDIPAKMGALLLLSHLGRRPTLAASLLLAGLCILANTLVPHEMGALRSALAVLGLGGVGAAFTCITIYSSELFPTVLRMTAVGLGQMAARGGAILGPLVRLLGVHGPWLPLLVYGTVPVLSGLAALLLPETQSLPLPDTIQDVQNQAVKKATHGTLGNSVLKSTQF
T3 sequence (Q96S37 whole entry M25V): as the sequence (Q96S37 whole entry S35N) above, with M25V, N35S counted along it
T2 sequence (Q96S37 whole entry M22V): as the sequence (Q96S37 whole entry S35N) above, with M22V, N35S counted along it
rat URAT1 r-T26V, sequence (Q3ZAV1 whole entry T26V): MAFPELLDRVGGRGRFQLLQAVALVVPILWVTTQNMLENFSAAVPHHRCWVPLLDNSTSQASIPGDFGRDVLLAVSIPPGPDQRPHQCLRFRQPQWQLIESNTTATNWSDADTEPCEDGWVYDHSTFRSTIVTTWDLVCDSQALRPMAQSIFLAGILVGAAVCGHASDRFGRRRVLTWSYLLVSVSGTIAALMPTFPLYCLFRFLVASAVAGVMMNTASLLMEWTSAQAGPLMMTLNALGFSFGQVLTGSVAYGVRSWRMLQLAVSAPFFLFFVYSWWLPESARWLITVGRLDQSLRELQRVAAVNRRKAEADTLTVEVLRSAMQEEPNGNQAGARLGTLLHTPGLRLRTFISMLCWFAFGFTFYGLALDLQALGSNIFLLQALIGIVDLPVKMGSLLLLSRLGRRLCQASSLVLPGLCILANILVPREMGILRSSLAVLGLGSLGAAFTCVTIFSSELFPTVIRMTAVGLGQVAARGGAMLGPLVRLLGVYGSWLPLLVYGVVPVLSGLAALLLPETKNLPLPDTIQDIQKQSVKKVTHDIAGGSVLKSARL

IC50 (human OAT1; human OAT1 in HEK-293T, 20 µM carboxyfluorescein, read-out: IC50, inhibition of transport activity): 4600 ± 1400 nM
fold lower affinity compared to URAT1 (human OAT1; human OAT1 vs human URAT1): approximately 200 fold
IC50 (human URAT1 h-M22V): 29 ± 13 nM
IC50 (human URAT1 h-M25V): 29 ± 10 nM
fold lower affinity relative to human URAT1 (human URAT1 h-S35N): 14 fold
IC50 (human URAT1 h-S35N; TM1 point mutant, read-out: Verinurad affinity (IC50)): 360 ± 150 nM
fold higher affinity compared to rat URAT1 (rat URAT1-Y365F): 14 fold
IC50 (rat URAT1-Y365F; TM7 point mutant, read-out: Verinurad affinity (IC50)): 2900 ± 1300 nM
IC50 (rat URAT1 r-T26V): 39000 ± 5500 nM
fold higher affinity compared to rat URAT1 ([1]; r-N35S/Y365F/M481I): ~300 fold
fold lower affinity compared to human URAT1 ([1]; r-N35S/Y365F/M481I): 6 fold
IC50 ([1]; r-N35S/Y365F/M481I triple point mutant): 140 nM
SMILES: CC(C)(Sc1ccncc1-c1ccc(C#N)c2ccccc12)C(=O)O [Verinurad, 2-((3-(4-cyanonaphthalen-1-yl)pyrindin-4-yl)thio)-2-methylpropanoic acid]
